Results on 39 substances are retold here after article PMC10065799, “High-throughput profiling of sequence recognition by tyrosine kinases and SH2 domains using bacterial peptide display” (eLife, 2023).

The subject of assay [1] is EPHB2 kinase domain. Kind of assay: pTyr-Var library bacterial peptide display kinase screen (enrichment scores). Format: biochemical, human. The note with it: sheet EPHB2.
Assay [2] relates to EPHB1 kinase domain. Described as above. The note with it: for Screen: sheet EPHB1, effect of the variant peptide relative to its reference peptide in the pTyr-Var library screen (enrichment scores); for Screen (variant relative to reference peptide, measured in the pTyr-Var library screen): sheet "EPHB1", variant seq vs reference seq, bacterial peptide display enrichment. Format: biochemical, human.

The subject of assay [3] is Fer kinase domain. The assay is described as above. The format is biochemical, mouse. The note with it: sheet "Fer".
In assay [4] the target is T1, c-Src kinase domain (Homo sapiens, UniProt P12931). Described as above. The note with it: sheet "Src". The format is biochemical.
Assay [5] has as its target T2, c-Abl kinase domain (Mus musculus, UniProt P00520).
T2 sequence (P00520 242-493 limits assumed): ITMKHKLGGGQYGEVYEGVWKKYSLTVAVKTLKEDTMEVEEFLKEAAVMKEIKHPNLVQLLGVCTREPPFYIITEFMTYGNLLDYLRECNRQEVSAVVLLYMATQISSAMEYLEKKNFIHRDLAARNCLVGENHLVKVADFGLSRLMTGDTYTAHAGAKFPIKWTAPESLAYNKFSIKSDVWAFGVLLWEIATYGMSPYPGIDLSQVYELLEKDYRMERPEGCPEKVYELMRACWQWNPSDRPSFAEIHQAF
The assay is described as above. Format: biochemical.

The target of assay [6] is T1, c-Src kinase domain. Kind of assay: ADP-Quest continuous fluorimetric kinase assay (Michaelis-Menten parameters and initial rates). Format: biochemical. An excerpt: A fluorescence-based assay from Eurofins (ADP Quest) was used to measure the Michaelis-Menten kinetic parameters for phosphorylation of the consensus peptides by purified tyrosine kinase domains. In this assay, ADP production as a result of kinase activity is coupled to the production of resorufin, a fluorophore that emits signal at 590 nm. For all experiments, the assay reactions were set up as described in the provided assay kit protocol, in a 384 well plate format. The peptide solutions were serially diluted in 100 mM Tris, pH 8.0, and the kinases were diluted to 50 nM in buffer (10 mM HEPES, 100 mM NaCl, 1 mM TCEP, 5 mM MgCl2, 10% (v/v) glycerol). The final reaction mixtures contained 10 nM of kinase with 100 μM of ATP. Reactions were initiated with the addition of 1 mM ATP into a 50 μL reaction mixture for a final concentration of 100 μM ATP. Phosphorylation reaction progress was monitored by measuring fluorescence at excitation 530 nm and emission 590 nm every 2 min at 37 °C on a plate reader (BioTek Synergy Neo 2). The fluorescence units (RFU) were converted to μM ADP by comparison to a standard curve, and the initial rates were extracted from the linear regime of the reaction progress curves. Initial rates were also measured for samples containing each kinase but lacking a peptide substrate, to account for background ATP hydrolysis. This background rate was subtracted from the rates measured in the presence of peptide. The subtracted rates were plotted as a function of substrate concentration and fit to the Michaelis-Menten equation to extract kcat and KM values.

Where [7] appears, read: effect of variant peptide relative to its reference peptide in the pTyr-Var library screen (enrichment scores).
[8] abbreviates: value of the variant peptide against its reference peptide in the pTyr-Var library screen with Fer.
Where [9] appears, read: effect of the variant peptide relative to its reference peptide in the pTyr-Var library screen.
Where [10] appears, read: effect of the variant relative to its reference peptide in the pTyr-Var library screen.
[11] abbreviates: variant peptide versus its reference peptide in the pTyr-Var library screen.
[12] abbreviates: variant peptide relative to its reference peptide, pTyr-Var library screen enrichment.
The mark [13] stands for this setting: sheet "Abl", effect of variant peptide relative to its reference peptide in pTyr-Var library screen (enrichment).
Where [14] appears, read: ADP-Quest assay, c-Src kinase domain 10 nM, 100 μM ATP, 37 °C, three to five replicates, error = standard error of global Michaelis-Menten fit.
Where [15] appears, read: fig5-data2, sheet "Abl", Screen for the variant/reference peptide pair, pTyr-Var library.

With KAPPTYDNVLQ [CYP3A4_Y347_T349N], the Screen in assay [1] (setting [7]) is listed as -1.141; in assay [2], -0.1539; in assay [3] (setting [8]), -0.1979.

For MARDIYQASFF [LTK_Y672_R673Q_YF], the Screen in assay [1] (setting [7]) is listed as 1.961; in assay [2], 2.318; in assay [4] (setting [9]), 3.363; in assay [3] (setting [8]), 3.102.

Consider SMEGLYSSAQD [CLIC5_Y111_T114A], for which the Screen in assay [1] (setting [7]) is reported as -0.2512; in assay [2], -0.2291; in assay [4] (setting [9]), 0.03653; in assay [3] (setting [8]), 0.3754.

In turn, ADRLEYSRTGL [MMUT_Y287_G284R] returned a Screen in assay [1] (setting [7]) of -0.9943.

As to HAVFIYDICHV [TWNK_Y508_V507I_YF], the Screen is 1.461 in assay [1] (setting [10]), -0.8811 in assay [4] (setting [11]) and 0.388 in assay [3] (setting [12]). Besides, the “Screen (variant relative to reference peptide, measured in the pTyr-Var library screen)” value in assay [2] came to 1.032.

Turning to FGSIMYEFVGK [SLC18A1_Y251_V249I], the Screen is -1.759 in assay [1] (setting [7]), -1.273 in assay [4] (setting [11]) and -0.674 in assay [3] (setting [12]). Moreover, the “Screen (variant relative to reference peptide, measured in the pTyr-Var library screen)” value in assay [2] is -1.716.

For the substance VATRWYWSPEL [CDKL5_Y177_R178W], the Screen in assay [1] (setting [7]) is listed as 2.978; in assay [2], 3.423.

Consider IMNLLYHVVGW [GBA_Y412_T408M], for which the Screen is -0.4774 in assay [1] (setting [7]), -0.2669 in assay [2], 0.1521 in assay [4] (setting [9]) and -0.4668 in assay [3] (setting [8]).

Take “Ac-IGEGTYRTVFK-NH2 [CDK5_Y15_G16R, pTyr-Var library variant phosphosite peptide]”: the Screen is given as -2.132 in assay [1] (setting [7]) and -3.502 in assay [4] (setting [9]).

With REGKIYEFNQV [ZNF665_Y162_H157R_YF], the Screen in assay [4] (effect of the variant peptide against its reference peptide, seen in the pTyr-Var library screen) is given as -1.072; in assay [5] (setting [13]), -1.605; in assay [3] (setting [12]) it was -0.7739.

On to LNPFIYSLRNC [OR1A2_Y288_W293C], for which the Screen in assay [2] was -1.104; in assay [4] (setting [11]), -0.4787; in assay [3] (setting [8]), -1.075.

For the substance ISKTWYSAEQF [CD207_Y217_P213S], the Screen is -0.7343 in assay [1] (setting [7]) and -0.7306 in assay [2].

In the case of FCRHNYGAVES [HLA-DRB1_Y112_V114A_YF], in assay [1] (setting [7]), the Screen was -2.259.

As to KELALYDENWF [RPS19_Y48_P47L], the figures for the Screen in assay [1] (setting [7]), in assay [2] and in assay [3] (setting [12]) were 4.277, 4.03 and 3.889, respectively.

Consider LDVGEYCVPRG [BEX1_Y43_A40V], for which the figures for the Screen in assay [1] (setting [7]) and in assay [2] were -0.4602 and -0.3957, respectively.

Consider PSAELYSFALP [PDGFRB_Y716_N718Y_YF], for which the Screen in assay [1] (setting [7]) is 2.567; in assay [2] it was 2.14; in assay [4] (setting [11]) it was 2.409; in assay [3] (setting [8]) it was 1.182.

Take “Ac-GPDEPIYEWWWIKKKG-NH2 [Fer Consensus, Fer consensus substrate peptide from X5-Y-X5 screen]”: in assay [6] (setting [14]), the Michaelis constant (Km) stood at 8 ± 4 µM and the kcat is given as 0.4±0.1 s^–1. For the same substance, in assay [6] (low concentration: peptide 20 μM, kinase 10–50 nM, Figure 2—figure supplement 2), the “phosphorylation of consensus peptide by c-Src (initial rate relative to cognate consensus)” value is on record as “significant off-target activity”.

As to LDAFIYNAAVL [GRIN2A_Y730_D731N], the Screen in assay [1] (setting [7]) is recorded as -1.324; in assay [2], -1.471; in assay [4] (setting [9]), -1.489; in assay [3] (setting [8]) it was -3.433.

Turning to LTERGYSFTTK [ACTG1_Y198_T203K], the results for the Screen in assay [1] (setting [7]), in assay [2] and in assay [3] (setting [8]) were 1.886, 1.554 and 1.86, respectively.

For DLHGIYQKLVI [TTN_Y21998_R21995H], the Screen was 1.178 in assay [1] (setting [10]), 0.02812 in assay [4] (setting [11]), -2.013 in assay [5] (setting [13]) and 0.5861 in assay [3] (setting [12]). In assay [2], the “Screen (variant relative to reference peptide, measured in the pTyr-Var library screen)” value came to 1.244.

Turning to MSSLFYANALF [HOXB7_Y6_T9A_YF], the Screen is recorded as 1.131 in assay [5] (setting [15]) and -0.9977 in assay [3] (setting [8]).

Take NSNSDYVDILP [SH2D1B_Y127_V130I]: in assay [1] (setting [7]), the Screen is 0.0762. In addition, in assay [2], the “Screen (variant relative to reference peptide, measured in the pTyr-Var library screen)” value is -0.2012.

On to PLDGEYFTLPI [TP53_Y327_Q331P], for which the Screen in assay [1] (setting [10]) came to 3.847; in assay [4] (setting [11]), 1.231; in assay [3] (setting [12]), 0.4845. For the same substance, in assay [2], the “Screen (variant relative to reference peptide, measured in the pTyr-Var library screen)” value came out at 3.664.

Regarding QNTGFYFDLFG [PTPN11_Y62_D61Y_YF], the Screen is reported as -4.029 in assay [1] (setting [7]), -3.875 in assay [2] and -1.182 in assay [4] (setting [11]).

Consider ADARMYGVHPW [PLP1_Y207_L210H], for which the Screen in assay [1] (setting [7]) is on record as -2.321; in assay [4] (setting [11]), -0.8602.

Regarding HKDNNYISMWF [PAPOLG_Y432_V433I], the Screen in assay [1] (setting [7]) is on record as -1.118; in assay [2], -1.294; in assay [3] (setting [8]), -1.378.

Consider TSSAVYMNLAS [GATAD2B_Y317_I316V], for which the Screen is given as -2.447 in assay [1] (setting [7]), -2.461 in assay [2], -0.9997 in assay [4] (setting [9]) and -2.177 in assay [3] (setting [8]).

Regarding DDFDLYGGEKF [PTPN11_Y66_Y62D_YF], the values for the Screen in assay [4] (setting [11]), in assay [5] (setting [15]) and in assay [3] (setting [12]) were -0.3825, -0.3703 and 1.351, respectively.

LPHVIYCRLWC [SMAD2_Y128_R133C]: the Screen in assay [1] (setting [7]) worked out at 1.893; in assay [4] (setting [11]), 1.251. In addition, the “Screen (variant relative to reference peptide, measured in the pTyr-Var library screen)” value in assay [2] is reported as 2.05.

Regarding PLDGEYFILQI [TP53_Y327_T329I], the Screen is 0.5203 in assay [1] (setting [10]) and -0.4119 in assay [4] (setting [11]). For the same substance, in assay [2], the “Screen (variant relative to reference peptide, measured in the pTyr-Var library screen)” value is given as 0.4645.

For the substance KKHIPYSEHKS [CSNK1G2_Y206_R207S], the Screen is -1.865 in assay [2] and -1.379 in assay [3] (setting [8]).

As for EPFELYCEMGS [CBL_Y371_Q367P_YF], the results for the Screen in assay [1] (setting [7]) and in assay [2] were -0.2507 and -0.3443, respectively.

Take LGNIVYSSLCG [BCOR_Y90_P85L]: the Screen in assay [4] (setting [9]) was 0.02175; in assay [3] (setting [8]) it was 0.7069.

As for DDEVFYSPLSL [OTC_Y317_R320L], the Screen in assay [4] (setting [11]) came out at 2.664; in assay [3] (setting [8]), 2.858.

PLFGEYFTLQI [TP53_Y327_D324Y_YF]: the Screen in assay [1] (setting [10]) is 0.9055; in assay [4] (setting [11]) it was 1.11. Further, the “Screen (variant relative to reference peptide, measured in the pTyr-Var library screen)” value in assay [2] came out at 1.054.

As to GNLLIYTEFGN [HGD_Y166_K171N], the Screen is given as 0.7326 in assay [1] (setting [7]), 0.6139 in assay [2] and -0.3322 in assay [4] (setting [9]).

QTPVLYAMLFH [MPZ_Y220_D224Y_YF]: the Screen in assay [1] (setting [7]) is listed as -1.088; in assay [2], -0.7178; in assay [4] (setting [9]) it was -0.1434; in assay [3] (setting [8]), -0.58.

On to CEQELYSQLVF [WAS_Y102_W97C_YF], for which the Screen is reported as -2.338 in assay [1] (setting [10]), -0.1333 in assay [4] (setting [11]), -3.187 in assay [5] (setting [13]) and -0.3985 in assay [3] (setting [12]). For the same substance, in assay [2], the “Screen (variant relative to reference peptide, measured in the pTyr-Var library screen)” value is -2.23.

In the case of FAELVYTVFWH [ASS1_Y322_G324V], the Screen is recorded as 0.0379 in assay [1] (setting [7]), 0.03348 in assay [2], 0.03298 in assay [4] (setting [9]) and -0.2764 in assay [3] (setting [8]).

By Km is commonly meant the substrate concentration at which the rate is half of its maximum.
